Source: US20050101595A1, “N-containing cycloalkyl-substituted amino-thiazole derivatives and pharmaceutical compositions for inhibiting cell proliferation and methods for their use” (PFIZER INC., priority 2003, published 2005)
Where two headings read alike, the source gives them in different places. Each block holds one compound with its values, some of them ahead of it.

Legend:
HCT-116 cell line = assay: Inhibition of cell growth, tetrazolium salt (MTT) assay; format: cell-based; conditions: for HCT-116 % Inhibition at 0.25 μM: 0.25 μM compound; for IC50: Homo sapiens, HCT-116, 120 h, MTT, three to five days, read-out: HCT-116 IC50
Outline: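 McCoy's 5A cultures; 4 h pre-incubation; compound dilutions in 0.5% v/v DMSO; 3–5 d, 37° C, 5% CO2; MTT 0.2 mg/mL final, 4 h; formazan dissolved in DMSO, A540; vs 0.5% DMSO vehicle.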

CDK2/Cyclin A = CDK2/Cyclin A (Homo sapiens, UniProt P24941); assay: Inhibition of CDK2/Cyclin A Retinoblastoma Kinase Activity; format: biochemical; conditions: for Ki: apparent Ki, CDK2/proteolyzed cyclin A, Rb fragment substrate, 25 μM ATP
Outline: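 Human CDK2, baculovirus/insect-cell expressed, complexed with proteolyzed cyclin A (10 nM or 19 nM CDK2) phosphorylates an Rb fragment with 25 μM [32P/33P]ATP at pH 7.4, 30° C, for 60 or 75 minutes under initial-rate conditions. Filter-captured radioactivity is read by phosphorimager; apparent Ki from competitive-inhibition fits.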

[1] = target: human CDK4 and genetically truncated (1-264) cyclin D3 (Homo sapiens, UniProt P11802); assay: Inhibition of CDK4/Cyclin D Retinoblastoma Kinase Activity; format: biochemical; conditions: for Ki: apparent Ki, CDK4/truncated cyclin D3, Rb fragment substrate, 25 μM ATP
Outline: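 Read-out: 32P/33P incorporation into Rb fragment (386-928) captured on nitrocellulose, phosphorimager. Enzyme 5 nM CDK4/cyclin D3(1-264) from insect cells; ATP 25 μM, pH 7.4, 30 °C, 20 min (60 min for tight binders). Ki from competitive fits.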

[2] = 0.03 μM compound, Table 4, 0.03 µM
[3] = 0.1 μM compound, HCT-116, Table 3

Chain of human CDK4 and genetically truncated (1-264) cyclin D3 (P11802 whole entry, the tested form may be a part): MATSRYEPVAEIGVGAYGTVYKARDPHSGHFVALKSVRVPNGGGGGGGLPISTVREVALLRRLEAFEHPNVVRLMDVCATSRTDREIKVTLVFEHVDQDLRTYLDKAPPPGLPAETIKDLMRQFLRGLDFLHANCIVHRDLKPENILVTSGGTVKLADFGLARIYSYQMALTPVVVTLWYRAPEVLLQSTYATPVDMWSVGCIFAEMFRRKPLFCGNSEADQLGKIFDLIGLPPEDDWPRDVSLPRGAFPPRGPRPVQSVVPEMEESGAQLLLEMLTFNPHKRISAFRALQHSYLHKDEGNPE
Chain of human CDK4 and genetically truncated (1-264) cyclin D3 (P30281 1-264 partner): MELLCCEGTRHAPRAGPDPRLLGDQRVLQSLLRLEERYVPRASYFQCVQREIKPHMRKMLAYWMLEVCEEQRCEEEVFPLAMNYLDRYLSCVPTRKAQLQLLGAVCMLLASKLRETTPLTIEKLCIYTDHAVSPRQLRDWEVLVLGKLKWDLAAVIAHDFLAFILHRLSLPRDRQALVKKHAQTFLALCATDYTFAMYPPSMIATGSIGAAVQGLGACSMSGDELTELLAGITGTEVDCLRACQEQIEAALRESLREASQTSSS

- CDK2 % Inhibition at 0.03 μM (CDK2/Cyclin A; at 0.03 μM): 56%
- CDK4 % Inhibition at 0.03 μM ([1]; at 0.03 μM): 72%
Compound: Nc1nc(NC2CCN(C(=O)c3cc(Cl)ccc3Cl)CC2)sc1C(=O)c1c(F)cccc1F [Example R108]
- HCT-116 % Inhibition at 0.1 μM (HCT-116 cell line; HCT-116 cells, at 0.1 μM): 5%
- HCT-116 5 Inhibition at 0.25 μM (HCT-116 cell line; HCT-116 cells): 58

- CDK2 % Inhibition at 0.03 μM (CDK2/Cyclin A; at 0.03 μM): 2%
- CDK4 % Inhibition at 0.03 μM ([1]; at 0.03 μM): 4%
Compound: COc1ccc(CCC(=O)N2CCC(Nc3nc(N)c(C(=O)c4c(F)cccc4F)s3)CC2)cc1 [Example R176]
- HCT-116 % Inhibition at 0.1 μM (HCT-116 cell line; HCT-116 cells, at 0.1 μM): 1%
- HCT-116 5 Inhibition at 0.25 μM (HCT-116 cell line; HCT-116 cells): 43

- CDK2 % Inhibition at 0.03 μM (CDK2/Cyclin A; [2]): 41%
- CDK4 % Inhibition at 0.03 μM [1, 2]: 49%
Compound: Nc1nc(NC2CCN(C(=O)c3cccs3)CC2)sc1C(=O)c1c(F)cccc1F [Example Q61]
- HCT-116 % Inhibition at 0.1 μM (HCT-116 cell line; 0.1 μM compound, HCT-116, Table 4, 0.1 µM): 0%
- HCT-116 % Inhibition at 0.25 μM (HCT-116 cell line; HCT-116, Table 4, 0.25 µM): 34%

- IC50 (HCT-116 cell line; first HCT-116 column (c4)): 1900 nM
- IC50 (HCT-116 cell line; second HCT-116 column (c5)): 5000 nM
- Ki (CDK2/Cyclin A): 1300 nM
- Ki [1]: 120 nM
Compound: CN(C)CC(=O)N1CCC(Nc2nc(N)c(C(=O)c3c(F)cccc3F)s2)CC1 [Example D2, (4-[4-Amino-5-(2,6-difluoro-benzoyl)-thiazol-2-ylamino}-piperidin-1-yl)-2-dimethylamino-ethanone]

- CDK2 % Inhibition at 0.03 μM (CDK2/Cyclin A; 0.03 μM compound, Table 4): −11%
- CDK4 % Inhibition at 0.03 μM ([1]; 0.03 μM compound, Table 4): 15%
Compound: Nc1nc(NC2CCN(C(=O)c3ccc(-c4ccccc4)cc3)CC2)sc1C(=O)c1c(F)cccc1F [Example Q32]
- HCT-116 % Inhibition at 0.1 μM (HCT-116 cell line; 0.1 μM compound, HCT-116, Table 4): 13%
- HCT-116 % Inhibition at 0.25 μM (HCT-116 cell line; HCT-116, Table 4): 54%

- CDK2 % Inhibition at 0.03 μM (CDK2/Cyclin A; 0.03 μM compound, Table 3): 24%
- CDK4 % Inhibition at 0.03 μM ([1]; 0.03 μM compound, Table 3): 42%
Compound: Nc1nc(NC2CCN(S(=O)(=O)c3cccc(Cl)c3Cl)CC2)sc1C(=O)c1c(F)cccc1F [Example P39]
- HCT-116 % Inhibition at 0.1 μM (HCT-116 cell line; [3]): 0%
- HCT-116 % Inhibition at 0.25 μM (HCT-116 cell line; HCT-116, Table 3): 25%

- CDK2 % Inhibition at 0.03 μM (CDK2/Cyclin A; at 0.03 μM): 34%
- CDK4 % Inhibition at 0.03 μM ([1]; at 0.03 μM): 55%
Compound: COc1c(C(=O)N2CCC(Nc3nc(N)c(C(=O)c4c(F)cccc4F)s3)CC2)csc1Cl [Example R49]
- HCT-116 % Inhibition at 0.1 μM (HCT-116 cell line; HCT-116 cells, at 0.1 μM): 0%
- HCT-116 5 Inhibition at 0.25 μM (HCT-116 cell line; HCT-116 cells): 61

- CDK2 % Inhibition at 0.03 μM (CDK2/Cyclin A; at 0.03 μM): 16%
- CDK4 % Inhibition at 0.03 μM ([1]; at 0.03 μM): 25%
Compound: Cc1cc(C(=O)N2CCC(Nc3nc(N)c(C(=O)c4c(F)cccc4F)s3)CC2)n(C(C)(C)C)n1 [Example R59]
- HCT-116 % Inhibition at 0.1 μM (HCT-116 cell line; HCT-116 cells, at 0.1 μM): 4%
- HCT-116 5 Inhibition at 0.25 μM (HCT-116 cell line; HCT-116 cells): 47

- CDK2 % Inhibition at 0.03 μM (CDK2/Cyclin A; at 0.03 μM): 38%
- CDK4 % Inhibition at 0.03 μM ([1]; at 0.03 μM): 69%
Compound: Cc1cccc(C(=O)N2CCC(Nc3nc(N)c(C(=O)c4c(F)cccc4F)s3)CC2)c1 [Example R140]
- HCT-116 % Inhibition at 0.1 μM (HCT-116 cell line; HCT-116 cells, at 0.1 μM): 32%
- HCT-116 5 Inhibition at 0.25 μM (HCT-116 cell line; HCT-116 cells): 78

- CDK2 % Inhibition at 0.03 μM (CDK2/Cyclin A; 0.03 μM compound, Table 3): 58%
- CDK4 % Inhibition at 0.03 μM ([1]; 0.03 μM compound, Table 3): 59%
Compound: Nc1nc(NC2CCN(S(=O)(=O)c3ccccc3F)CC2)sc1C(=O)c1c(F)cccc1F [Example P32]
- HCT-116 % Inhibition at 0.1 μM (HCT-116 cell line; [3]): 13%
- HCT-116 % Inhibition at 0.25 μM (HCT-116 cell line; HCT-116, Table 3): 28%

- CDK2 % Inhibition at 0.03 μM (CDK2/Cyclin A; at 0.03 μM): 59%
- CDK4 % Inhibition at 0.03 μM ([1]; at 0.03 μM): 77%
Compound: Nc1nc(NC2CCN(C(=O)c3cccc(F)c3)CC2)sc1C(=O)c1c(F)cccc1F [Example R130]
- HCT-116 % Inhibition at 0.1 μM (HCT-116 cell line; HCT-116 cells, at 0.1 μM): 0%
- HCT-116 5 Inhibition at 0.25 μM (HCT-116 cell line; HCT-116 cells): 20

- IC50 (HCT-116 cell line; first HCT-116 column (c4)): 300 nM
- IC50 (HCT-116 cell line; second HCT-116 column (c5)): 500 nM
- Ki (CDK2/Cyclin A): < 1 nM
- Ki [1]: 0.98 nM
Compound: N#Cc1ccc(S(=O)(=O)N2CCC(Nc3nc(N)c(C(=O)c4c(F)cccc4F)s3)CC2)cc1 [Example F18, 4-{4-[4-Amino-5-(2,6-difluoro-benzoyl)-thiazol-2-ylamino]-piperidine-1-sulfonyl}benzonitrile]

- CDK2 % Inhibition At 0.03 μM (CDK2/Cyclin A; 0.03 μM compound, Table 2): 30%
- CDK4 % Inhibition at 0.03 μM ([1]; 0.03 μM compound, Table 2): 7%
Compound: Nc1nc(NC2CCN(C(=O)Nc3ccc(Cl)c(C(F)(F)F)c3)CC2)sc1C(=O)c1c(F)cccc1F [Example O51]
- HCT-116 % Inhibition at 0.25 μM (HCT-116 cell line; HCT-116, Table 2): 11%
